Assays:
[1] = target: T1, Cholesteryl ester transfer protein (Homo sapiens, UniProt P11597); test: Inhibition of CETP in human whole plasma
T1 sequence (P11597 whole entry): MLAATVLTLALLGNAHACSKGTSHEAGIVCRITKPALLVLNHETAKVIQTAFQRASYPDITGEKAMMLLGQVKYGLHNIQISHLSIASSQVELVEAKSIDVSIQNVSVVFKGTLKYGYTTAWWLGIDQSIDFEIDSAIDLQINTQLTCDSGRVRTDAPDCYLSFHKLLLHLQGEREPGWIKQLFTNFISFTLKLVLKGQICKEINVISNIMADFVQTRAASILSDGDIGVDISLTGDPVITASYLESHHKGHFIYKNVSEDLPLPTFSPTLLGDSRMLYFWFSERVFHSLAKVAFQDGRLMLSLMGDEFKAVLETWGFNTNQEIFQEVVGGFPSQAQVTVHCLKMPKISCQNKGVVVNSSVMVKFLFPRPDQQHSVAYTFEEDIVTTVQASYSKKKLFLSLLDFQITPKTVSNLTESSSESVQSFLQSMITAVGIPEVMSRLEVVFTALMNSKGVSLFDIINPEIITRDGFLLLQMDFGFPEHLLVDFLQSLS

[2] = target: T1, Cholesteryl ester transfer protein; test: Inhibition of human CETP by scintillation proximity assay

| Compound | IC50 [1] | IC50 [2] |
| --- | --- | --- |
| Cc1ccc2oc(-c3ccc(NC(=O)COc4ccccc4C)cc3)nc2c1 | 31 µM | 1.1 µM |
| Cc1ccc2nc(-c3ccc(NC(=O)COc4ccccc4C)cc3)oc2c1 | – | 13 µM |
| Cc1ccccc1OCC(=O)Nc1ccc(-c2nc3ccc(N4CCCC4)cc3o2)cc1 | – | > 32 µM |
| CCS(=O)(=O)c1ccc2oc(-c3ccc(NC(=O)COc4ccccc4C)cc3)nc2c1 | – | 9.3 µM |
| Cc1cc(C)c2oc(-c3ccc(NC(=O)COc4ccc(Cl)c(C)c4C)cc3)nc2c1 | 1.7 µM | 0.04 µM |
| Cc1ccccc1OCC(=O)Nc1ccc(-c2nc3cc(Cl)cc([N+](=O)[O-])c3o2)cc1 | 18 µM | 0.049 µM |
| COC(=O)c1ccccc1OCC(=O)Nc1ccc(-c2nc3cc(C)cc(C)c3o2)cc1 | – | 0.22 µM |
| Cc1cc(C)c2oc(-c3ccc(NC(=O)COc4ccccc4Cl)cc3)nc2c1 | – | > 10 µM |
| Cc1ccccc1OCC(=O)Nc1ccc(-c2nc3cc(-c4ccccc4)ccc3o2)cc1 | – | 1.9 µM |
| Cc1cc(C)c2oc(-c3ccc(NC(=O)COc4ccc(C(F)(F)F)cc4)cc3)nc2c1 | – | > 10 µM |
| Cc1ccccc1OCC(=O)Nc1ccc(-c2nc3cc(C(C)(C)C)ccc3o2)cc1 | – | > 32 µM |
| CC(=O)c1ccc2oc(-c3ccc(NC(=O)COc4ccccc4C)cc3)nc2c1 | 18 µM | 1.2 µM |
| COC(=O)c1cccc(OCC(=O)Nc2ccc(-c3nc4cc(C)cc(C)c4o3)cc2)c1 | – | > 10 µM |
| Cc1cc(C)c2oc(-c3ccc(NC(=O)COc4cccc(Cl)c4)cc3)nc2c1 | 11 µM | 1.3 µM |
| CC(=O)c1cc(C)cc2nc(-c3ccc(NC(=O)COc4ccccc4C)cc3)oc12 | 27 µM | 0.24 µM |
| Cc1cc(C)c2oc(-c3ccc(NC(=O)COc4ccc(C)c5c4CCC5)cc3)nc2c1 | 3.5 µM | 0.085 µM |
| Cc1cc(C)c2oc(-c3ccc(NC(=O)COc4ccc(Cl)c(Cl)c4)cc3)nc2c1 | 13 µM | 0.2 µM |
| Cc1cc(C)c2oc(-c3ccc(NC(=O)COc4cccc(C(F)(F)F)c4)cc3)nc2c1 | 32 µM | > 10 µM |
| Cc1ccc(OCC(=O)Nc2ccc(-c3nc4cc(C)cc(C)c4o3)cc2)c(C)c1 | 4.5 µM | 0.14 µM |
| Cc1cc(C)c2oc(-c3ccc(NC(=O)COc4cccc(OC(F)(F)F)c4)cc3)nc2c1 | 61 µM | 3.6 µM |
| Cc1ccccc1OCC(=O)Nc1ccc(-c2nc3cc(Cl)cc(Cl)c3o2)cc1 | 11 µM | 0.088 µM |

| Compound | IC50 [1] | IC50 [2] |
| --- | --- | --- |
| Cc1cc(C)c2oc(-c3ccc(NC(=O)COc4ccc(F)cc4C)cc3)nc2c1 | 4.9 µM | 0.023 µM |
| N#Cc1ccc2oc(-c3ccc(NC(=O)COc4ccc(Cl)c(C(F)(F)F)c4)cc3)nc2c1 | 4.3 µM | 0.018 µM |
| Cc1ccccc1OCC(=O)Nc1ccc(-c2nc3ccc([N+](=O)[O-])cc3o2)cc1 | – | > 32 µM |
| Cc1ccccc1OCC(=O)Nc1ccc(-c2nc3cc(F)ccc3o2)cc1 | – | > 32 µM |
| Cc1cc(C)c2oc(-c3ccc(NC(=O)COc4cccc(-c5ccccc5)c4)cc3)nc2c1 | – | 2.3 µM |
| Cc1ccccc1OCC(=O)Nc1ccc(-c2nc3cc(OC(F)(F)F)ccc3o2)cc1 | 71 µM | 11 µM |
| Cc1ccccc1OCC(=O)Nc1ccc(-c2nc3cccc(C(=O)O)c3o2)cc1 | – | > 32 µM |
| Cc1cc(C)c2oc(-c3ccc(NC(=O)COc4cccc(F)c4)cc3)nc2c1 | 51 µM | 1.1 µM |
| N#Cc1ccc2oc(-c3ccc(NC(=O)COc4ccc(Cl)c5c4CCC5)cc3)nc2c1 | 3.2 µM | 0.015 µM |
| COC(=O)c1ccc2nc(-c3ccc(NC(=O)COc4ccccc4C)cc3)oc2c1 | – | > 32 µM |
| Cc1ccccc1OCC(=O)Nc1ccc(-c2nc3cc(C(=O)O)ccc3o2)cc1 | – | > 32 µM |
| Cc1ccccc1OCC(=O)Nc1ccc(-c2nc3cc(Br)ccc3o2)cc1 | 28 µM | 0.44 µM |
| Cc1cc(C)c2oc(-c3ccc(NC(=O)COc4ccc(Cl)cc4)cc3)nc2c1 | 20 µM | 0.38 µM |
| Cc1cccc(OCC(=O)Nc2ccc(-c3nc4cc(C)cc(C)c4o3)cc2)c1 | 18 µM | 0.69 µM |
| Cc1cc(C)c2oc(-c3ccc(NC(=O)COc4ccc(Cl)c5c4CCC5)cc3)nc2c1 | 2.5 µM | 0.056 µM |
| Cc1ccc(C)c(OCC(=O)Nc2ccc(-c3nc4cc(C)cc(C)c4o3)cc2)c1 | – | > 10 µM |
| Cc1cc(C)c2oc(-c3ccc(NC(=O)COc4ccc(Br)cc4C)cc3)nc2c1 | 3.2 µM | 0.031 µM |
| COC(=O)c1c(Cl)ccc(OCC(=O)Nc2ccc(-c3nc4cc(C#N)ccc4o3)cc2)c1C | 1.3 µM | 0.018 µM |
| Cc1cc(C)c2oc(-c3ccc(NC(=O)COc4c(C)cccc4Cl)cc3)nc2c1 | – | > 10 µM |
| COC(=O)c1ccc2oc(-c3ccc(NC(=O)COc4ccccc4C)cc3)nc2c1 | – | > 32 µM |
| COc1ccccc1OCC(=O)Nc1ccc(-c2nc3cc(C)cc(C)c3o2)cc1 | – | 8.3 µM |
